What was measured:
NK cells = experiment: Microarray (Affymetrix U133) gene expression analysis of poly(I:C)-treated NK cells; assay type: cell-based, human; conditions: for FoldChange / log10-FoldChange: relative to untreated NK cells
Method: A microarray based gene expression analysis using high-density oligonucleotide arrays (GeneChip, Affymetrix) was performed using RNA from resting and poly(I:C)-treated NK cells (NK cells were obtained and purified from 4 healthy donors using the technique described in Example 1 above). The NK cells were treated with poly(I:C) (50 μg/ml, Pharmacia) overnight in RPMI 1640 supplemented with heat inactivated 10% FCS, penicillin, streptomycin, 10 mM sodium pyruvate, 2 mM L-glutamine and 10 mM HEPES. RNA was isolated using a RNeasy kit (Qiagen), and treated with RNase-free DNase-I (Ambion) to ensure removal of contaminating DNA. NK cells were lysed in lysis buffer (50 mM HEPES pH7.5, 150 mM NaCl, 1.5 mM MgCl2, 1 mM EGTA, 10% glycerol and 1% Triton X-100, supplemented with Complete Protease Inhibitor Cocktail (Roche).
Affymetrix U133A and B GeneChip probe arrays were used to identify differentially expressed transcripts. Initially, the genes were ranked according to concordance in the pairwise comparison, and the Mann-Whitney pairwise comparison test was used to calculate significance. Genes for which the concordance was 100% were chosen for further analysis. This approach was previously validated to identify differentially expressed genes by confirming with real time RT-PCR. To determine confidence intervals shown in Table 1, the average log10-signal was computed for each probe set of the genes of interest, or the treatment and control groups. The estimated log10 fold change was defined as the difference between these averages. A pooled estimate of the standard deviation about the two groups' averages (computed separately for each probe set) was used to compute a 95% confidence interval for the log10 fold change. The estimated log10 fold change and the two endpoints of its 95% confidence interval were exponentiated back to the original signal scale, providing an estimate of fold change and a corresponding 95% confidence interval. Additional information about the U133 probe sets is available from the manufacturer, Affymetrix.
Fold change values and associated 95% confidence intervals (degree of freedom=6) were determined for genes of interest upon treatment with poly(I:C) relative to untreated NK cells. Data for each probe set present on the Affymetrix U133 chip series corresponding to the genes of interest is shown.

[1] = system: Apo2L/TRAIL mRNA in NK cells; experiment: RT-QPCR of Apo2L/TRAIL message in treated NK cells; assay type: cell-based, human; conditions: NK cells treated 18 hours; normalized to RPL19
Method: In another experiment, the purified NK cells were treated for 18 hours in RPMI 1640 supplemented with heat inactivated 10% FCS, penicillin, streptomycin, 10 mM sodium pyruvate, 2 mM L-glutamine and 10 mM HEPES with poly(I:C) (50 μg/ml), R-848 (5 μg/ml) or hIFN-alpha (1000 U/ml, Sigma) in the presence or absence of 10 μg/ml cycloheximide and Apo2L/TRAIL was measured in the extracted RNA. RT-PCR was performed and the amount of cDNA was quantitated by RT-QPCR analysis, normalized to RPL19, and fold induction over control is shown in FIG. 2A. Primers were designed as per instructions (Primer Express) and sequences are: hRPL19-probe: […] (SEQ ID NO:7); hRPL19-For: […] (SEQ ID NO:8); hRPL19-Rev: […] (SEQ ID NO:9); hApo2L-probe: […] (SEQ ID NO:10); hApo2L-For: […] (SEQ ID NO:11); hApo2L-Rev: […] (SEQ ID NO:12). cDNA was analyzed for expression of RPL19 and Apo2L/TRAIL by RT-QPCR (Applied Biosystems) as described in Zarember et al., J. Immunol., 168(2):554-61 (2002). Fold increase values are expressed as arbitrary units, relative to the calibrator gene RPL19.

[2] = gene Apo2L, probe set 202687_s_at
[3] = gene Apo2L, probe set 202688_at
[4] = gene Apo2L, probe set 214329_x_at
[5] = gene CCL19, probe set 210072_at
[6] = gene CCL20, probe set 205476_at
[7] = gene CCL21, probe set 204606_at
[8] = gene FasL, probe set 211333_s_at
[9] = gene Granulysin, probe set 37145_at
[10] = gene Granulysin, probe set 205495_s_at
[11] = gene Granzyme A, probe set 205488_at
[12] = gene Granzyme B, probe set 210164_at
[13] = gene Granzyme H, probe set 210321_at
[14] = gene Granzyme M, probe set 207460_at
[15] = gene IL-8, probe set 202859_x_at
[16] = gene IL-8, probe set 211506_s_at
[17] = gene NKG2-D, probe set 205821_at
[18] = gene NKG2-D, probe set 210690_at
[19] = gene NKG2A, probe set 206785_s_at
[20] = gene NKp30, probe set 210629_x_at
[21] = gene NKp30, probe set 211581_x_at
[22] = gene NKp30, probe set 211582_x_at
[23] = gene NKp30, probe set 214181_x_at
[24] = gene NKp30, probe set 214574_x_at
[25] = gene Perforin 1, probe set 214617_at
[26] = gene TNFα, probe set 207113_s_at
[27] = poly(I:C) treatment, microarray

poly(I:C) was tested, and the FoldChange (NK cells; [2]) was 13.42, the log10-FoldChange (NK cells; [2]) was 1.13 and the FoldChange (NK cells; [3]) was 9.67. For the same substance, the log10-FoldChange (NK cells; [3]) was 0.99, the FoldChange (NK cells; [4]) was 5.85 and the log10-FoldChange (NK cells; [4]) was 0.77. The FoldChange (NK cells; [5]) was 34.71, the log10-FoldChange (NK cells; [5]) was 1.54 and the FoldChange (NK cells; [6]) was 7.96. For the same substance, the log10-FoldChange (NK cells; [6]) was 0.9, the FoldChange (NK cells; [7]) was 1.2 and the log10-FoldChange (NK cells; [7]) was 0.08. For the same substance, the FoldChange (NK cells; gene CCR7, probe set 206337_at) was 4.79, the log10-FoldChange (NK cells; gene CCR7, probe set 206337_at) was 0.68 and the FoldChange (NK cells; gene FasL, probe set 210865_at) was 2.37. For the same substance, the log10-FoldChange (NK cells; gene FasL, probe set 210865_at) was 0.37, the FoldChange (NK cells; [8]) was 2.49 and the log10-FoldChange (NK cells; [8]) was 0.4. It also gave a FoldChange (NK cells; [9]) of 1.18, a log10-FoldChange (NK cells; [9]) of 0.07 and a FoldChange (NK cells; [10]) of 1.25. It also gave a log10-FoldChange (NK cells; [10]) of 0.1, a FoldChange (NK cells; [11]) of 0.83 and a log10-FoldChange (NK cells; [11]) of −0.08. For the same substance, the FoldChange (NK cells; [12]) was 1.04, the log10-FoldChange (NK cells; [12]) was 0.02 and the FoldChange (NK cells; [13]) was 0.58. It also gave a log10-FoldChange (NK cells; [13]) of −0.24, a FoldChange (NK cells; [14]) of 0.81 and a log10-FoldChange (NK cells; [14]) of −0.09. It also gave a FoldChange (NK cells; gene IFNγ, probe set 210354_at) of 14.45, a log10-FoldChange (NK cells; gene IFNγ, probe set 210354_at) of 1.16 and a FoldChange (NK cells; gene IL-6, probe set 205207_at) of 10.43. The log10-FoldChange (NK cells; gene IL-6, probe set 205207_at) was 1.02, the FoldChange (NK cells; [15]) was 4.07 and the log10-FoldChange (NK cells; [15]) was 0.61. It also gave a FoldChange (NK cells; [16]) of 3.42, a log10-FoldChange (NK cells; [16]) of 0.53 and a FoldChange (NK cells; [17]) of 0.86. The log10-FoldChange (NK cells; [17]) was −0.07, the FoldChange (NK cells; [18]) was 0.66 and the log10-FoldChange (NK cells; [18]) was −0.18. It also gave a FoldChange (NK cells; [19]) of 0.97, a log10-FoldChange (NK cells; [19]) of −0.01 and a FoldChange (NK cells; [20]) of 0.38. For the same substance, the log10-FoldChange (NK cells; [20]) was −0.42, the FoldChange (NK cells; [21]) was 0.26 and the log10-FoldChange (NK cells; [21]) was −0.59. The FoldChange (NK cells; [22]) was 0.19, the log10-FoldChange (NK cells; [22]) was −0.72 and the FoldChange (NK cells; [23]) was 0.22. For the same substance, the log10-FoldChange (NK cells; [23]) was −0.67, the FoldChange (NK cells; [24]) was 0.25 and the log10-FoldChange (NK cells; [24]) was −0.6. It also gave a FoldChange (NK cells; [25]) of 1.3, a log10-FoldChange (NK cells; [25]) of 0.12 and a FoldChange (NK cells; [26]) of 2.68. For the same substance, the log10-FoldChange (NK cells; [26]) was 0.43, the “Expression of mRNA for FasL and TNF-alpha” value (NK cells; poly(I:C) treatment (activation of TLR3)) was “smaller, but reproducible increase” and the “Decrease in expression of NKp30 in NK cells” value (NK cells; [27]) was 3-5 fold. For the same substance, the “Decrease in expression of granzyme H in NK cells” value (NK cells; [27]) was 3-5 fold, the “Expression of mRNAs encoding perforin, granulysin, granzymes A, B, M, NKG2D and NKp44” value (NK cells; [27]) was “did not significantly alter” and the “Increase in expression of Apo2L/TRAIL in NK cells” value (NK cells; [27]) was about 10 fold. The “Increase of Apo2L/TRAIL mRNA over control” value [1] was 26 fold.
